Measured values reported in patent US20250171495A1, “MUTLI-TARGETED SERINE PROTEASE INHIBITORS FOR TREATMENT OF CANCER AND VIRAL INFECTION” (Washington University, priority 2023, published 2025).
“And” between values parts separate entries of the source, which are not always exact repeats. Equal entries are not always repeated.

How the values were obtained:
Type in all cases: biochemical
HGFA = molecular target: T1, HGFA (Homo sapiens, UniProt Q04756); assay: HyCoSuL P4-P2 substrate specificity screening, HGFA; settings: for P2 Position Substrate Activity for HGFA (percent substrate cleavage/proteolysis): residue fixed at P2 position; for P3 Position Substrate Activity for HGFA (percent substrate cleavage/proteolysis): residue fixed at P3 position; for P4 Position Various Amino Acids Substrate Activity, HGFA (percent substrate proteolysis/cleavage): residue fixed at P4 position of substrate library; for P3 Position Various Amino Acids Substrate Activity, HGFA (percent substrate cleavage/proteolysis): residue fixed at P3 position of substrate library
T1 sequence (Q04756 373-655): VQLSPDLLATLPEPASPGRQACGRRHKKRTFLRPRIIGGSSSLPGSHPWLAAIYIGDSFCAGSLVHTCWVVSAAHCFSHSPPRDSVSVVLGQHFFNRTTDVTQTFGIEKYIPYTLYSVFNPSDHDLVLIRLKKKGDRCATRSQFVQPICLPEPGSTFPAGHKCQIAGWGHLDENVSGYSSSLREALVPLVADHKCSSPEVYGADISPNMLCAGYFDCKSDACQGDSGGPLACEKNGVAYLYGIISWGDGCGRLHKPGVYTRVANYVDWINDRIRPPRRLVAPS

matriptase = molecular target: T2, matriptase (Homo sapiens, UniProt Q9Y5Y6); assay: HyCoSuL P4-P2 substrate specificity screening, matriptase; settings: for P2 Position Substrate Activity for matriptase (percent substrate cleavage/proteolysis): residue fixed at P2 position; for P3 Position Various Amino Acids Substrate Activity, matriptase (percent substrate cleavage/proteolysis): residue fixed at P3 position of substrate library; for P3 Position Substrate Activity for matriptase (percent substrate cleavage/proteolysis): residue fixed at P3 position; for P4 Position Various Amino Acids Substrate Activity, matriptase (percent substrate proteolysis/cleavage): residue fixed at P4 position of substrate library
T2 sequence (Q9Y5Y6 1-855): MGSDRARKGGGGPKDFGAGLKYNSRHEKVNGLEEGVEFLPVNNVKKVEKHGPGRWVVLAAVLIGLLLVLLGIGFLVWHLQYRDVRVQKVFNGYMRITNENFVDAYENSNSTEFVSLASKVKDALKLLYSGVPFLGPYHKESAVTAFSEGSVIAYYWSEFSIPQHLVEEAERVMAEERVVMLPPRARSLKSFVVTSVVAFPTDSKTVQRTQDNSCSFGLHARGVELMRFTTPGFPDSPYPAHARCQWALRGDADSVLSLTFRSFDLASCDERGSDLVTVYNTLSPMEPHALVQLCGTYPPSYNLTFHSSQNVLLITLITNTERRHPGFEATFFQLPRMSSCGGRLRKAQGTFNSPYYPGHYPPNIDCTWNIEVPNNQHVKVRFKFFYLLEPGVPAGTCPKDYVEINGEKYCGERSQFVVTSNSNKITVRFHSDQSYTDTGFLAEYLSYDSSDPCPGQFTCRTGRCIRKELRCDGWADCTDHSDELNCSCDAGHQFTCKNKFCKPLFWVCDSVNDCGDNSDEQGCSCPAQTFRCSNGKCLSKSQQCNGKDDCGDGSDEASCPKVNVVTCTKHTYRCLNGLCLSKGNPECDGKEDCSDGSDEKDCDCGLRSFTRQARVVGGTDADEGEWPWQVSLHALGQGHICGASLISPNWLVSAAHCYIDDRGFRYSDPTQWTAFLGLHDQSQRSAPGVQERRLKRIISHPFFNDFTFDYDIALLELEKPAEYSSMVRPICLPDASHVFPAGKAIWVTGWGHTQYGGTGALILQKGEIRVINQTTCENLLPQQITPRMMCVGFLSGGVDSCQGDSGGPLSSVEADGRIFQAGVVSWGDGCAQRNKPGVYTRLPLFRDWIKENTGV

hepsin = molecular target: T3, hepsin (Homo sapiens, UniProt P05981); assay: HyCoSuL P4-P2 substrate specificity screening, hepsin; settings: for P2 Position Substrate Activity for hepsin (percent substrate cleavage/proteolysis): residue fixed at P2 position; for P3 Position Substrate Activity for hepsin (percent substrate cleavage/proteolysis): residue fixed at P3 position; for P4 Position Various Amino Acids Substrate Activity, hepsin (percent substrate proteolysis/cleavage): residue fixed at P4 position of substrate library; for P3 Position Various Amino Acids Substrate Activity, hepsin (percent substrate cleavage/proteolysis): residue fixed at P3 position of substrate library
T3 construct: purchased R&D Systems 4776-SE-010

TMPRSS2 = TMPRSS2 (Homo sapiens, UniProt O15393); assay: PS-SCL / HyCoSuL substrate specificity screening, TMPRSS2; settings: for P2 Position Substrate Activity for TMPRSS2 (percent substrate cleavage/proteolysis): residue fixed at P2 position of substrate library; for P3 Position Substrate Activity for TMPRSS2 (percent substrate cleavage/proteolysis) / P3 Position Various Amino Acids Substrate Activity, TMPRSS2 (percent substrate cleavage/proteolysis): residue fixed at P3 position of substrate library
[1] = P1-Arg HyCoSuL, 100 μM, best recognized amino acid set to 100%
[2] = best recognized amino acid set to 100%
[3] = residue fixed at P4 position of substrate library
[4] = residue fixed at P4 position, P1-Arg HyCoSuL, 100 μM, best recognized amino acid set to 100%

T3 sequence (P05981 163-417 limits assumed): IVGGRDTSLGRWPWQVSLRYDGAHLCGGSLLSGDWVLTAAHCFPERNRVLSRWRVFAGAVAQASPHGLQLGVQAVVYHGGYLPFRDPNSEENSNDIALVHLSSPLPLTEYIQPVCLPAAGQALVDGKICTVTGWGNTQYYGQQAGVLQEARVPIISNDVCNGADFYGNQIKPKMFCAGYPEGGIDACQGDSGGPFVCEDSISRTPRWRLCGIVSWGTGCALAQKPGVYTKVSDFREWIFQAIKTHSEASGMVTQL
T3 sequence (P05981 1-162 partner limits assumed): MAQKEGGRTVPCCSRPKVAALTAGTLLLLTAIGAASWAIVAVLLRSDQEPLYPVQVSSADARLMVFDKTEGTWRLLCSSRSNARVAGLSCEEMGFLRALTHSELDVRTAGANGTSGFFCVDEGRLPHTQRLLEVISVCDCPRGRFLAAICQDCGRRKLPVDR
Sequence of TMPRSS2 (O15393 whole entry): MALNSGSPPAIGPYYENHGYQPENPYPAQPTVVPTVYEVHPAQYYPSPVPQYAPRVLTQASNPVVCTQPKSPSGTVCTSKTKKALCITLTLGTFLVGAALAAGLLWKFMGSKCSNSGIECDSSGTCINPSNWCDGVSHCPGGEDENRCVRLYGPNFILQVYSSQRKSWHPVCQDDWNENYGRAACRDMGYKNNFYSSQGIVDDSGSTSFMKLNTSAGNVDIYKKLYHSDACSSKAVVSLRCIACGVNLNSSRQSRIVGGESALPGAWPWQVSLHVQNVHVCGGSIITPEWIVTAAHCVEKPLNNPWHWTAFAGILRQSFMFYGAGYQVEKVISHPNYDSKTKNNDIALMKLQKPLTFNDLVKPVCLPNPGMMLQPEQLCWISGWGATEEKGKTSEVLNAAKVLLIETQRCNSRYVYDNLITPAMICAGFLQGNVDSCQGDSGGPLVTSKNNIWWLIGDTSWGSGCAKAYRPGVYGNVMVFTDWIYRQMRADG

Substance	P2 Position Substrate Activity for HGFA (percent substrate cleavage/proteolysis) (HGFA; [1]) [%]	P3 Position Substrate Activity for HGFA (percent substrate cleavage/proteolysis) (HGFA; [1]) [%]	P4 Position Various Amino Acids Substrate Activity, HGFA (percent substrate proteolysis/cleavage) (HGFA) [%]	P2 Position Substrate Activity for matriptase (percent substrate cleavage/proteolysis) (matriptase; [1]) [%]	P3 Position Various Amino Acids Substrate Activity, matriptase (percent substrate cleavage/proteolysis) (matriptase) [%]	P3 Position Substrate Activity for matriptase (percent substrate cleavage/proteolysis) (matriptase; [1])	P4 Position Various Amino Acids Substrate Activity, matriptase (percent substrate proteolysis/cleavage) (matriptase) [%]	P2 Position Substrate Activity for hepsin (percent substrate cleavage/proteolysis) (hepsin; [1]) [%]	P3 Position Substrate Activity for hepsin (percent substrate cleavage/proteolysis) (hepsin; [1]) [%]	P4 Position Various Amino Acids Substrate Activity, hepsin (percent substrate proteolysis/cleavage) (hepsin) [%]	P2 Position Substrate Activity for TMPRSS2 (percent substrate cleavage/proteolysis) (TMPRSS2; [2]) [%]	P3 Position Substrate Activity for TMPRSS2 (percent substrate cleavage/proteolysis) (TMPRSS2; [2]) [%]	P4 Position Various Amino Acids Substrate Activity, TMPRSS2 (percent substrate proteolysis/cleavage) (TMPRSS2; [3]) [%]	P3 Position Various Amino Acids Substrate Activity, HGFA (percent substrate cleavage/proteolysis) (HGFA) [%]	P3 Position Various Amino Acids Substrate Activity, hepsin (percent substrate cleavage/proteolysis) (hepsin) [%]	P3 Position Various Amino Acids Substrate Activity, TMPRSS2 (percent substrate cleavage/proteolysis) (TMPRSS2) [%]	P4 Position Substrate Activity for HGFA (percent substrate cleavage/proteolysis) (HGFA; [4]) [%]	P4 Position Substrate Activity for matriptase (percent substrate cleavage/proteolysis) (matriptase; [4]) [%]	P4 Position Substrate Activity for hepsin (percent substrate cleavage/proteolysis) (hepsin; [4]) [%]	P4 Position Substrate Activity for TMPRSS2 (percent substrate cleavage/proteolysis) (TMPRSS2; residue fixed at P4 position of substrate library, best recognized amino acid set to 100%) [%]
L-Met(O)	1.68	16.63	6.64	1	52	51.68%	10	11.40	68.16	22.86	0.00	57.41	24.40	–	–	–	–	–	–	–
L-Nle	45.52	–	11.76	13	34	–	34	62.04	–	40.93	11.80	–	56.06	19.15	24.09	38.11	–	–	–	–
L-Nva	39.80	–	11.78	11	25	–	30	58.40	–	41.99	13.88	–	54.45	17.60	25.85	38.62	–	–	–	–
L-Orn	0.00	54.04	–	4	74	73.75% and 62.39%	82	78.48	79.70	–	0.00	22.76	–	–	–	–	20.23	82.42	84.52	12.33
L-Phe	16.60	–	9.42	39	19	–	14	25.22	–	30.80	95.60	–	31.64	13.51	2.91	14.74	–	–	–	–
L-Pro	2.21	–	10.30	22	2	–	40	13.10	–	56.00	16.87	–	40.11	2.04	2.09	0.00	–	–	–	–
L-Ser	3.24	–	7.04	28	33	–	19	18.40	–	31.63	19.86	–	20.12	14.57	38.70	35.95	–	–	–	–
